Measurements from patent publication US20120220603A1, “SUBSTITUTED HETEROCYCLIC DERIVATIVES FOR THE TREATMENT OF PAIN AND EPILEPSY” (ZALICUS PHARMACEUTICALS LTD., priority 2009, published 2012).
Each block holds one molecule with its values, some of them ahead of it.

Assays:
[1] = target: T1, CaV3.2 T-type Ca2+ channels expressed in HEK cells (Homo sapiens, UniProt O95180); test: CaV3.2 voltage-clamp electrophysiological assay (fast and slow inactivation); assay type: cell-based
T1 construct: expressed in transfected cells; host or cells: HEK cells
T1 sequence (O95180 whole entry): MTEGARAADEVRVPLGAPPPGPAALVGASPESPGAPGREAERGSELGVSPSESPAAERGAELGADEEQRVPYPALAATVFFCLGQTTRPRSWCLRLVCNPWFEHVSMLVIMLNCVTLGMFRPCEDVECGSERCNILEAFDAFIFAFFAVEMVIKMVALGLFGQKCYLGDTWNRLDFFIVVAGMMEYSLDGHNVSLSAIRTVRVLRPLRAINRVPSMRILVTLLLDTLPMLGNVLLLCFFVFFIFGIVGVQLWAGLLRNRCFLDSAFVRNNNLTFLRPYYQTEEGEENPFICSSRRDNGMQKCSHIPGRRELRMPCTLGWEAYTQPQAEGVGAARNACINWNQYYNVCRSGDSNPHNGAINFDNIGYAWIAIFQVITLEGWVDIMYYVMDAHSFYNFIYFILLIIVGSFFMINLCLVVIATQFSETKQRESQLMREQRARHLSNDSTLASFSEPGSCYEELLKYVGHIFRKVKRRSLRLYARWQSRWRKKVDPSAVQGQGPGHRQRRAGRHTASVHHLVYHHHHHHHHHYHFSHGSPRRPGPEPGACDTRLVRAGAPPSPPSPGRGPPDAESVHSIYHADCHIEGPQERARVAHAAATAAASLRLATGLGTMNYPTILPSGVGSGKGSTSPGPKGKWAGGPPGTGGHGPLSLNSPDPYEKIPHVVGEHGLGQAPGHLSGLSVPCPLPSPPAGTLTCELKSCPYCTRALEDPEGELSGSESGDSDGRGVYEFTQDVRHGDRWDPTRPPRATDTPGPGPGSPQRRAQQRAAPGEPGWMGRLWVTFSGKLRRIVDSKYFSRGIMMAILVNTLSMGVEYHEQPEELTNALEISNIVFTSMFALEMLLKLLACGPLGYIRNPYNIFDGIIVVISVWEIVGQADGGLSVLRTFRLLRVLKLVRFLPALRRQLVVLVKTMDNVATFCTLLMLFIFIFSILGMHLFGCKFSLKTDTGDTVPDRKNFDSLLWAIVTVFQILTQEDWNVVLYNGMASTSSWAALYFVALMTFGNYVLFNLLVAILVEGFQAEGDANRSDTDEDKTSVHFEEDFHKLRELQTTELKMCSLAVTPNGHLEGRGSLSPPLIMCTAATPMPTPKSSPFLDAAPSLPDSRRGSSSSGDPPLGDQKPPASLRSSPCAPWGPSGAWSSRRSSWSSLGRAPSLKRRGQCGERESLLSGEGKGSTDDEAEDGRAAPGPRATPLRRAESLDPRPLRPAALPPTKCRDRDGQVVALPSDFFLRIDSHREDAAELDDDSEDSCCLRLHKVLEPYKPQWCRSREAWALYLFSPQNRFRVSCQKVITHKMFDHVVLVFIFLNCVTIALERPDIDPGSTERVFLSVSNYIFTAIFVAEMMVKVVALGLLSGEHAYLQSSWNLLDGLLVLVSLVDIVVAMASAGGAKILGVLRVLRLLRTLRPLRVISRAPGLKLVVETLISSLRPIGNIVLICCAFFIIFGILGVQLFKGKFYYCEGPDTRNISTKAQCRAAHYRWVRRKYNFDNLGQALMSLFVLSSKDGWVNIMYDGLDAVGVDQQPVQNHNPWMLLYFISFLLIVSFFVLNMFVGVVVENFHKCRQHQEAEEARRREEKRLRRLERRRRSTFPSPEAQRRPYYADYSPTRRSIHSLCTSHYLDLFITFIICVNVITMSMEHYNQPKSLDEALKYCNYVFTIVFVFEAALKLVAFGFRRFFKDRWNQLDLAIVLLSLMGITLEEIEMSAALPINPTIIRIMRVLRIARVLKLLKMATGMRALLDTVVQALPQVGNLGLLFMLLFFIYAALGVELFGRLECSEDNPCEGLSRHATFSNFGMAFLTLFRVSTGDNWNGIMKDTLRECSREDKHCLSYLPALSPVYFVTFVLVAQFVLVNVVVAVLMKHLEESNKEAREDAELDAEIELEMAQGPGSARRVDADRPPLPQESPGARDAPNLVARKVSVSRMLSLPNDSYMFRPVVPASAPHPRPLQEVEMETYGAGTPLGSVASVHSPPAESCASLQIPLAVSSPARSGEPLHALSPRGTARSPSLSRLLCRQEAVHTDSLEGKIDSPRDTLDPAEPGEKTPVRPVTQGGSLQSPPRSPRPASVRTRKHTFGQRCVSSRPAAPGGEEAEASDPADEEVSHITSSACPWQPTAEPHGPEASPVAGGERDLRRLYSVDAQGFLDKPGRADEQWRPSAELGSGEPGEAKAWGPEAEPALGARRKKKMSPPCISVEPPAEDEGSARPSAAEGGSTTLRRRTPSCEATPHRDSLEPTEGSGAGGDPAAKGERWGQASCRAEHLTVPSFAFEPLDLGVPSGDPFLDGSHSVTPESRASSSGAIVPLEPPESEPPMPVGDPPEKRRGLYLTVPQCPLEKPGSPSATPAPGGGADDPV
Text: Prior to recording currents from CaV3.2 T-type Ca^2+ channels expressed in HEK cells, the culture media was replaced with extracellular solution (ECS) containing (in mM): 142 CsCl, 10 D-glucose, 2 CaCl2, 1 MgCl2, 10 HEPES, pH adjusted to 7.4 with CsOH. Borosilicate glass patch pipettes, pulled on a P-97 micropipette puller (Sutter Instruments, Novato, Calif.) with typical resistances of 2-4 MW, were backfilled with intracellular solution containing (in mM): 126.5 Cs-methanesulphonate, 2 MgCl2, 10 HEPES, 11 EGTA, 2 Na-ATP, pH adjusted to 7.3 CsOH. […] were recorded in the whole-cell configuration at room temperature (˜21° C.) using an Axopatch 200B (Molecular Devices, Sunnyvale, Calif.) patch-clamp amplifier. Recordings were low-pass filtered at 1 kHz (−3 dB 4-pole Bessel filter), digitized at 2 kHz with a Digidata 1322A interface (Molecular Devices), and acquired using pClamp 9.2 (Molecular Devices). No leak subtraction was used. Test compounds, prepared as 30 mM stock solutions in DMSO and diluted in extracellular buffer, were applied through a gravity driven multi-barrelled array of capillaries (24 gauge) connected to reservoirs controlled by solenoid valves. The effects of compounds on CaV3.2 slow and fast inactivation were evaluated using four different voltage protocols. The voltage dependence of fast and slow channel inactivation was examined using a two pulse protocol. Data were analyzed and fitted using OriginPro v.7.5 (OriginLab, Northampton, Mass.) software.

[2] = tested on: Rat SNL tactile allodynia; test: L5/L6 spinal nerve ligation (SNL) Chung pain model, tactile allodynia (von Frey); assay type: in vivo
Text: The Spinal Nerve Ligation is an animal model representing peripheral nerve injury generating a neuropathic pain syndrome. In this model experimental animals develop the clinical symptoms of tactile allodynia and hyperalgesia. L5/L6 Spinal nerve ligation (SNL) injury was induced using the procedure of Kim and Chung (Kim et al., Pain 50:355-363 (1992)) in male Sprague-Dawley rats (Harlan; Indianapolis, Ind.) weighing 200 to 250 grams.
Anaesthesia was induced with 2% isofluorane in O2 at 2 L/min and maintained with 0.5% isofluorane in O2. Rats were then shaved and aseptically prepared for surgeries. A 2 cm paraspinal incision was made at the level of L4-S2. L4/L5 was exposed by removing the transverse process above the nerves with a small rongeur. The L5 spinal nerve is the larger of the two visible nerves below the transverse process and lies closest to the spine. The L6 spinal nerve is located beneath the corner of the slope bone. A home-made glass Chung rod was used to hook L5 or L6 and a pre-made slip knot of 4.0 silk suture was placed on the tip of the rod just above the nerve and pulled underneath to allow for the tight ligation. The L5 and L6 spinal nerves were tightly ligated distal to the dorsal root ganglion. The incision was closed, and the animals were allowed to recover for 5 days.
Sham control rats underwent the same operation and handling as the experimental animals, but without SNL.
Prior to initiating drug delivery, baseline behavioural testing data is obtained. At selected times after infusion of the Test or Control Article behavioural data can then be collected again.
The assessment of tactile allodynia consisted of measuring the withdrawal threshold of the paw ipsilateral to the site of nerve injury in response to probing with a series of calibrated von Frey filaments (innocuous stimuli). Animals were acclimated to the suspended wire-mesh cages for 30 min before testing. Each von Frey filament was applied perpendicularly to the plantar surface of the ligated paw of rats for 5 sec. A positive response was indicated by a sharp withdrawal of the paw. For rats, the first testing filament is 4.31. Measurements were taken before and after administration of test articles. […] The protocol was repeated until three changes in behaviour were determined (“up and down” method) (Chaplan et al., J. Neurosci. Methods 53:55-63 (1994)). The 50% paw withdrawal threshold was determined as (10^[Xf+kδ])/10,000, where Xf=the value of the last von Frey filament employed, k=Dixon value for the positive/negative pattern, and S=the logarithmic difference between stimuli. The cut-off values for rats were no less than 0.2 g and no higher than 15 g (5.18 filament); for mice no less than 0.03 g and no higher than 2.34 g (4.56 filament). A significant drop of the paw withdrawal threshold compared to the pre-treatment baseline is considered tactile allodynia. […]

[3] = target: T2, NaV1.7 channels expressed in HEK cells (Homo sapiens, UniProt Q15858); test: NaV1.7 voltage-clamp electrophysiological assay (enhancement of slow inactivation); assay type: cell-based
T2 construct: expressed in transfected cells; host or cells: HEK cells
T2 sequence (Q15858 whole entry): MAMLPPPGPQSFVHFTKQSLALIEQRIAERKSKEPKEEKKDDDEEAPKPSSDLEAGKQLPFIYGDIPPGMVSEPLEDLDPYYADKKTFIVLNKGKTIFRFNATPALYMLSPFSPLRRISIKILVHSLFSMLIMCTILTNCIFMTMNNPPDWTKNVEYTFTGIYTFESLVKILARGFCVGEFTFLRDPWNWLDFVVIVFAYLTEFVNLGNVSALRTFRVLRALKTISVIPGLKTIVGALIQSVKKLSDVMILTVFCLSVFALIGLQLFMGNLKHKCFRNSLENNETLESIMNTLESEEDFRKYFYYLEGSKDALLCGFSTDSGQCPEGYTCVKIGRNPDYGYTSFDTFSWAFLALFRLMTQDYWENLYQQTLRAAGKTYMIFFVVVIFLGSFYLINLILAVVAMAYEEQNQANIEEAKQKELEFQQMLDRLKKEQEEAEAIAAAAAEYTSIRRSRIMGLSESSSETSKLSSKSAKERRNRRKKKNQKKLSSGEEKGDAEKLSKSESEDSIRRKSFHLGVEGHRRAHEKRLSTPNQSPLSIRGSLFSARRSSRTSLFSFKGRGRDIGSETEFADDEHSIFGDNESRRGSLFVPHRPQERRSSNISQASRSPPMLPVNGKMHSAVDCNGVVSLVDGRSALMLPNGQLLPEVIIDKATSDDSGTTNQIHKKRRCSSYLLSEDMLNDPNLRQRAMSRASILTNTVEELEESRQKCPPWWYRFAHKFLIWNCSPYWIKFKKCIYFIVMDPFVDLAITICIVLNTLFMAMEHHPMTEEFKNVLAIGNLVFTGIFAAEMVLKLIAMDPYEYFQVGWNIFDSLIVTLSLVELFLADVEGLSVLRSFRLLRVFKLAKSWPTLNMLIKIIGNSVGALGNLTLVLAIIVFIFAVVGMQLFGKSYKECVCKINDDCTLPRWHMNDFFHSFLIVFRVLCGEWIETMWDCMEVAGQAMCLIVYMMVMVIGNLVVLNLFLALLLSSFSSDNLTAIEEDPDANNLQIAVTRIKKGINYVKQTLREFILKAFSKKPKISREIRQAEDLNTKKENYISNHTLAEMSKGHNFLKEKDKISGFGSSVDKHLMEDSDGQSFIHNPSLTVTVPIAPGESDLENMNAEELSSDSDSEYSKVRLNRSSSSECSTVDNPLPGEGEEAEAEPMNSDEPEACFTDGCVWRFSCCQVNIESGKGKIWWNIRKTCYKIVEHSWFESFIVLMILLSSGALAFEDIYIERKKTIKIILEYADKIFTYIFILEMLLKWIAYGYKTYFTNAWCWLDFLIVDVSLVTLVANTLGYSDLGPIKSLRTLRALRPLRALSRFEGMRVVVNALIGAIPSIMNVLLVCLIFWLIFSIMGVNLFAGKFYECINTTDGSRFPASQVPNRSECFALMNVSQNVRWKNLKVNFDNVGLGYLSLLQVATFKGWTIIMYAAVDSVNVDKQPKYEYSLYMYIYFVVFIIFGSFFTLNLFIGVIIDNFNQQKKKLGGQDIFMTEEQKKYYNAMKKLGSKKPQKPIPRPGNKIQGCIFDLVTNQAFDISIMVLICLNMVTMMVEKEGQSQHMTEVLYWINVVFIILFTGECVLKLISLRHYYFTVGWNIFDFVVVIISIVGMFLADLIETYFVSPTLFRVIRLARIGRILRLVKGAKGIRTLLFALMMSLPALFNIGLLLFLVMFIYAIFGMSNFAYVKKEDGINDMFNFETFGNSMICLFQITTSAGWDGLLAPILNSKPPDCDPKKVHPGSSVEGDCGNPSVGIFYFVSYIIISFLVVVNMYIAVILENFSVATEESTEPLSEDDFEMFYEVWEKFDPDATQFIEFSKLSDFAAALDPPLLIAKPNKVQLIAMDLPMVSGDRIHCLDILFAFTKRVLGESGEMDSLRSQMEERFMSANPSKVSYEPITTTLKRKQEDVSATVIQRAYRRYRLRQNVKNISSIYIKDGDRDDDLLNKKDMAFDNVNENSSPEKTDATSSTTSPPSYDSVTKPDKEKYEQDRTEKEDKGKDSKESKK
Experimental: To examine the effects of compounds on enhancement of slow inactivation of NaV1.7 and NaV1.8 channels expressed in HEK cells the culture media was replaced with an extracellular solution containing (in mM): 137 NaCl, 4 KCl, 1.8 CaCl2, 1 MgCl2, 10 HEPES, 10 glucose, pH adjusted to 7.4 with NaOH. The intracellular solution contained (in mM): 130 KCl, 1 MgCl2, 5 EGTA, 10 HEPES, 5 K2ATP, adjusted to pH 7.3 with KOH. Whole-cell recordings, preparation and application of test compounds were performed in a similar manner to the CaV3.2 electrophysiological assays. Voltage protocols were applied to quantify the effects of test compounds to enhance slow inactivation for NaV1.7 and NaV1.8.

[4] = Rat Early Pharmacokinetic (EPK) study; assay type: in vivo; conditions: PO, 30 mg/kg, formulation 10% DMSO/90% CMC; for Tmax: male, Sprague-Dawley, blood
Experimental: Male Sprague-Dawley rats were dosed via oral (PO) gavage in the detailed formulation. Blood samples were collected from the animals at 6 timepoints out to 4 hours post-dose. Pharmacokinetic analysis was performed on the LC-MS/MS measured concentrations for each timepoint of each compound.

[5] = voltage-dependence of half inactivation, HEK cells, whole-cell

SMILES: O=C1CNCCN1C(=O)CNc1cc(F)cc(F)c1 [Compound 3, 1-(2-(3,5-difluorophenylamino)acetyl)piperazin-2-one]
Rat SNL Tactile Allodynia (% Antiallodynia) ([2]; 1 hour): 1%
Rat SNL Tactile Allodynia (% Antiallodynia) ([2]; 4 hours): 4%

SMILES: O=C1CN(C(=O)CNc2cc(F)cc(C(F)(F)F)c2)CCN1 [Compound 11, 4-(2-(3-fluoro-5-(trifluoromethyl)phenylamino)acetyl)piperazin-2-one]
Rat SNL Tactile Allodynia (% Antiallodynia) ([2]; 1 hour): 9%
Rat SNL Tactile Allodynia (% Antiallodynia) ([2]; 2 hours): 4%
Rat SNL Tactile Allodynia (% Antiallodynia) ([2]; 4 hours): 1%

SMILES: CC1(C)C(=O)NCCN1C(=O)CNc1cc(C(F)(F)F)cc(C(F)(F)F)c1 [Compound 12, 4-(2-(3,5-bis(trifluoromethyl)phenylamino)acetyl)-3,3-dimethylpiperazin-2-one]
Rat SNL Tactile Allodynia (% Antiallodynia) ([2]; 1 hour): 9%
Rat SNL Tactile Allodynia (% Antiallodynia) ([2]; 2 hours): 11%
Rat SNL Tactile Allodynia (% Antiallodynia) ([2]; 4 hours): 42%

SMILES: O=C(CN1CCNCC1=O)NCc1cc(C(F)(F)F)cc(C(F)(F)F)c1 [Compound 20, N-(3,5-bis(trifluoromethyl)benzyl)-2-(2-oxopiperazin-1-yl)acetamide]
Fraction current remaining ([3]; concentration tested 30 μM): 0.87

Now from value to molecule, other results behind:

Fraction of current recovered at 5.1 s interval ([1]; 5.1 s interval): 0.98
Fraction current remaining at −40 mV ([1]; at −40 mV): 0.58
V1/2 fast inactivation [1, 5]: −65 mV
V1/2 slow inactivation [1, 5]: −80 mV
SMILES: O=C(CN1CCNCC1=O)Nc1cc(F)c(F)cc1F [Compound 2, 2-(2-oxopiperazin-1-yl)-N-(2,4,5-trifluorophenyl)acetamide]

Fraction current remaining ([3]; concentration tested 10 μM): 0.91
Fraction current remaining ([3]; concentration tested 100 μM): 0.74
Dose Normalized AUC [4]: 1,192 nM*h
Dose Normalized Cmax [4]: 355 nM
Tmax [4]: 72 min
SMILES: O=C1CN(C(=O)CNc2cc(C(F)(F)F)cc(C(F)(F)F)c2)CCN1 [Compound 10, 4-(2-(3,5-bis(trifluoromethyl)phenylamino)acetyl)piperazin-2-one]
Rat SNL Tactile Allodynia (% Antiallodynia) ([2]; 1 hour): 10%
Rat SNL Tactile Allodynia (% Antiallodynia) ([2]; 2 hours): 13%
Rat SNL Tactile Allodynia (% Antiallodynia) ([2]; 4 hours): 15%

Dose Normalized AUC [4]: 458 nM·h
Dose Normalized Cmax [4]: 172 nM
Tmax [4]: 40.2 min
SMILES: CC1(C)CN(CC(=O)Nc2cc(C(F)(F)F)cc(C(F)(F)F)c2)C(=O)CN1 [Compound 13, N-(3,5-bis(trifluoromethyl)phenyl)-2-(5,5-dimethyl-2-oxopiperazin-1-yl)acetamide]
Rat SNL Tactile Allodynia (% Antiallodynia) ([2]; 1 hour): 16%
Rat SNL Tactile Allodynia (% Antiallodynia) ([2]; 2 hours): 8%
Rat SNL Tactile Allodynia (% Antiallodynia) ([2]; 4 hours): 5%
Anti-allodynia in rat SNL tactile allodynia (in words) ([2]; at 60 minutes compared to baseline and post-SNL): significant anti-allodynia

Fraction current remaining ([3]; concentration tested 30 μM): 0.91
SMILES: O=C(NCCN1CCNCC1=O)c1cc(F)cc(C(F)(F)F)c1 [Compound 23, 3-fluoro-N-(2-(2-oxopiperazin-1-yl)ethyl)-5-(trifluoromethyl)benzamide]
